For experiment [1], the system named is HCV genotype 1a replicon (H77) in HUH-7 cells. Description: HCV replicon luciferase reporter assay, genotype 1a. The format is cell-based. The settings on record: Hepatitis C virus, Huh-7, 72 h, read-out: 1a/1b EC50 (nM): 1a. The text has this:
A stable HCV genotype 1a replicon cell line was generated with a similar genomic map as described above for the 1b replicon cell line. An additional adaptive substitution at position 1496 (proline to leucine) was also introduced (Lemm J A, Liu M, Rose R E, Fridell R, O′Boyle Ii D R, Colonno R, Gao M. Intervirology. 2005 48(2-3):183-91). The sequence of the H77 infectious clone (see above for details) was used to generate the sub-replicon which also contained the selectable marker G418 and the Renilla luciferase gene.
(§1) The HCV replicon luciferase assay was developed to monitor the inhibitory effects of compounds described in the disclosure on HCV viral replication. […] After 3 days incubation at 37° C., cells were analyzed for Renilla Luciferase activity using the EnduRen as substrate (Promega cat 4E6485). […] The plates were incubated for 2 hrs at 37° C. and then read immediately for 30 seconds on the Viewlux Imager (PerkinElmer) using a luminescence program. […] The fluorescence signal from each well was read, with an excitation wavelength at 525/10 nm and an emission wavelength of 598/10 nm, on the Viewlux Imager.
(§2) The percentage inhibition was calculated using the formula below:
(§3) [formula] The values were graphed and analyzed using XLfit to obtain the EC50 value.
In general terms: In antiviral work, replicon cells carry a viral genome segment that copies itself.

Experiment [2] concerns HCV strain 1b replicon in HUH-7 cells. The experiment in a line: HCV replicon luciferase reporter assay, genotype 1b. It counts as cell-based. The settings on record: Hepatitis C virus, Huh-7, 72 h, read-out: 1a/1b EC50 (nM): 1b.
Excerpt: An HCV replicon whole cell system was established as described by Lohmann V, Korner F, Koch J, Herian U, Theilmann L, Bartenschlager R., Science 285(5424):110-3 (1999). This system enabled us to evaluate the effects of our HCV Protease compounds on HCV RNA replication. Briefly, using the HCV strain 1b sequence described in the Lohmann paper (Assession number: AJ238799), an HCV cDNA was synthesized by Operon Technologies, Inc. (Alameda, Calif.), and the full-length replicon was then assembled in plasmid pGem9zf(+) (Promega, Madison, Wis.) using standard molecular biology techniques. […]
as §1, §2, §3

The target of experiment [3] is T1, HCV NS3/4A protease complex (Hepatitis C virus genotype 1a, UniProt P27958, C1454S/C1711G).
T1 construct: DNA encoding the recombinant HCV NS3/4A protease complex (amino acids 1027 to 1711) for these strains; inferred from pET21b vector and Ni-NTA purification; made in house; host or cells: Escherichia coli BL21 (DE3), pET21b
The experiment in a line: FRET peptide assay to monitor HCV NS3/4A proteolytic activity. The format is biochemical. The settings on record: recombinant NS3/4A protease complex, RET S1 FRET peptide substrate; strain not given. The text has this:
HCV NS3 protease complexes, derived from the BMS strain, H77 strain or J4L65 strain, were generated, as described below. These purified recombinant proteins were generated for use in a homogeneous assay (see below) to provide an indication of how effective compounds of the present disclosure would be in inhibiting HCV NS3 proteolytic activity.
The H77 and J4L6S strains were used for production of recombinant NS3/4A protease complexes. DNA encoding the recombinant HCV NS3/4A protease complex (amino acids 1027 to 1711) for these strains was manipulated as described by P. Gallinari et al. (see Gallinari P, Paolini C, Brennan D, Nardi C, Steinkuhler C, De Francesco R. Biochemistry. 38(17):5620-32, (1999)). Briefly, a three-lysine solubilizing tail was added at the 3′-end of the NS4A coding region. The cysteine in the P1 position of the NS4A-NS4B cleavage site (amino acid 1711) was changed to a glycine to avoid the proteolytic cleavage of the lysine tag. Furthermore, a cysteine to serine mutation was introduced by PCR at amino acid position 1454 to prevent the autolytic cleavage in the NS3 helicase domain. […]

By IC50 is commonly meant the point on the concentration scale where inhibition reaches its midpoint.

SMILES strings stand for the structures.

T1 sequence (P27958 1027-1711 C1454S/C1711G, one chain of several): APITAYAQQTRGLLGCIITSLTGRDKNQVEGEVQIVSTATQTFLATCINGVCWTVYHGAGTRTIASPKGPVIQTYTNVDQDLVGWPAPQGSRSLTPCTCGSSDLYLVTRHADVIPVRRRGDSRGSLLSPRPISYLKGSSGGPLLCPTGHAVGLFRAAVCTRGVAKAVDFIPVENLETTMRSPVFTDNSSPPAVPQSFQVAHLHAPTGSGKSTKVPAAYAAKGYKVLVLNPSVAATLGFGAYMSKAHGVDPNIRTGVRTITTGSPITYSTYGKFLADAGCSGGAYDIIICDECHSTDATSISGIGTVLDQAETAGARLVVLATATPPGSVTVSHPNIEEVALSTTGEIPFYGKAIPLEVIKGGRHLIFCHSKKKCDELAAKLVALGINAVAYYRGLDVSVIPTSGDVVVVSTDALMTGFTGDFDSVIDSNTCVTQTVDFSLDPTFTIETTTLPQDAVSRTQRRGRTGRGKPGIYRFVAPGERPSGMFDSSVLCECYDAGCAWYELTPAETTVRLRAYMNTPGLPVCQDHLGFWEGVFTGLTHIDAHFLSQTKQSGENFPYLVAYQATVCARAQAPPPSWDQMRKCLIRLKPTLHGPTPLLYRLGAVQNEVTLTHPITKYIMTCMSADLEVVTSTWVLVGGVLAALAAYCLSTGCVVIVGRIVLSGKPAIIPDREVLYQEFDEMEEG

Consider `CC(C)(C)OC(=O)N[C@H](C(=O)N1C[C@]2(c3ccc(-c4ccccc4)cc3)C[C@H]1C(=O)N[C@@]1(C[C@H]1C(F)F)C(=O)NS(=O)(=O)C1(CCCCC/C=C/CS2)CC1)C(C)(C)C` [Compound 1], for which the EC50 in experiment [1] came out at 49 nM; in experiment [2], 21 nM. In addition, the IC50 in experiment [3] worked out at 2 nM.

For the molecule `CC(C)(C)OC(=O)N[C@H](C(=O)N1C[C@]2(c3ccc(-c4ccccc4)cc3)C[C@H]1C(=O)N[C@@]1(C[C@H]1C(F)F)C(=O)NS(=O)(=O)C1(CCCCC/C=C\CS2)CC1)C(C)(C)C` [Compound 2], the EC50 stood at 95 nM in experiment [1] and 33 nM in experiment [2]. Further, the IC50 in experiment [3] was determined as 4 nM.

Source of the values: US8283310B2, “Hepatitis C virus inhibitors” (priority 2008, dated 2012).
